The record followed here is patent US20090186835A1, “TREATMENT AND PROPHYLAXIS OF CANCER” (priority 2008, published 2009).

The test system of data set [1] is human pancreatic carcinoma cells (HPAC). In words: CytoTox 96 LDH release cytotoxicity assay on HPAC cells. In general terms: LDH leaks from cells whose membrane has failed.
Description: (§1) The pancreatic cancer cell line, human pancreatic carcinoma cells (HPAC), was obtained from American Tissue and Cell Culture and cultured in complete media according to American Tissue and Cell Culture guidelines in T-75-cm^2 flasks in a 37° C. incubator with 5% CO2. HPAC cells were grown in Dulbecco's modified Eagle's medium with Ham F-12, 5% fetal bovine serum, 5% penicillin/streptomycin, 0.002 mg/mL insulin, 0.005 mg/mL transferrin, 40 ng/mL hydrocortisone, and 10 ng/mL epidermal growth factor.
(§2) 1×10^4 HPAC cells were aliquoted into each well of a 96-well plate and served as target cells. They were plated in phenol red dye-free RPMI 1640 (HyClone, Logan, Utah) complete medium (1 mM L-glutamine, 100 U/mL penicillin, 100 μg/mL streptomycin, 5% heat-inactivated fetal bovine serum; Gibco-BRL, Grand Island, N.Y.) and incubated with either natural mixture or sophorolipid derivative in increasing concentrations (0, 50, 100, 150, 200 mg; 100 μL final volume) at 37° C. with 5% CO2 overnight.
(§3) Assays were carried out using a CytoTox 96 Non-Radioactive Cytotoxicity Assay (Promega, Woodshole, Mass.), in accordance with manufacturer's directions. This assay measures lactate dehydrogenase (LDH) release by target cells, after conversion of a tetrazolium salt into a formazan red product. Cytotoxicity as measured by LDH release is considered an effective measure of determining cellular necrosis. Sophorolipid mixtures or derivatives (0, 50, 100, 150, 200 mg) were added to 96-well tissue culture plates (Fisher Scientific, Springfield, N.J.) containing HPAC cells (100 μL final volume) and incubated at 37° C., 5% CO2, for 20 h. To establish maximum lysis, lysing solution (9% v/v Triton-X 100; 10 μL) was added to representative culture wells containing HPAC cells. After incubation, supernatant (50 μL) was transferred to a fresh 96-well plate. Chromogenic substrate solution (50 μL) was added to each well while the plates were incubated in the dark at RT for 30 min, after which stop solution (1M NaAc; 50 μL) was added to each well to stop the reaction.
(§4) Cytotoxicity as measured by LDH release was determined by spectrophotometry at 450 nm (Bio-Tek Instruments Inc., Winooski, Vt.). […] Data shown represent the mean of at least three experiments±SE and are expressed as percentage cytotoxicity. Background controls were corrected for and consisted of target cell spontaneous (HPACs in media) and target cell maximum (HPACs in media with 10 μL lysis solution). Target cell maximum was corrected for by a volume control (media with 10 μL lysis solution). Each experiment was corrected for by a sophorolipid control (sophorolipid in media). These controls were incubated on the same 96-well plate as experimental assays. Percent (%) cytotoxicity was calculated according to the general equation below:
(§5) Values for results were expressed as means±SE obtained from multiple determinations in three or more separate experiments. P values computed were two-tailed, and P<0.05 was considered statistically significant (Student's t-test, analysis of variance with Tukey post-hoc correction; SPSS version 10.0, Chicago, Ill.).
Data set [2] deals with Human pancreatic carcinoma (HPAC) cells. In words: Apoptosis (annexin) in HPAC cells. It counts as cell-based. The settings on record: 0.5-2.0 mg/ml, 24 hours. The protocol: The sophorolipid mixtures of the present invention have anti cancer properties, which were confirmed by experiment and observations. […] Controls consisted of cells treated with media or vehicle alone and sophorolipids treatment of peripheral blood mononuclear cells (PBMC). AS mediated toxicity was inversely proportional with dose (LSD—40.3% at 0.5 mg/ml, 3.4% at 2.0 mg/ml, AS 49% at 0.5 mg/ml, 0% at 2.0 mg/ml).

Data set [3] relates to human pancreatic carcinoma cells (HPAC).
Description: as §1, §2, §3, §4, §5

Read-outs that look alike come from different tables or passages of the source.

`CC(=O)OC[C@H]1O[C@H]2OC(C)CCCCCC/C=C\CCCCCCCC(=O)O[C@H]3[C@H](O)[C@@H](O)[C@H](O[C@@H]2[C@@H](O)[C@@H]1O)O[C@@H]3COC(C)=O` (stereo partly drawn) [LSD, lactonic sophorolipid diacetate]: the “percent cytotoxicity (LDH release)” value in data set [1] (HPAC cells cultured with 100 μg of sophorolipid natural mixture or derivative, FIG. 2) is recorded as 26.2%; in data set [1] (HPAC cells, 0.5 mg/mL) it was 40.3%; in data set [1] (HPAC cells, 2.0 mg/mL), 3.4%. In data set [1] (HPAC cells, 0.5-2.0 mg/ml, in words), the “dose dependence of the cytotoxic response” value is “inversely proportional to dose”.

In the case of acidic sophorolipid [AS], the “apoptosis (annexin)” value in data set [2] is recorded as “Dose dependant apoptosis could be observed”. Moreover, the “dose dependence of the cytotoxic response” value in data set [3] is listed as “inversely proportional to dose”.
